Common to all, as to assay type: in vivo
Experiment [1] concerns Echinochloa crus-galli (ECHCG). As to the kind of experiment: Pre-emergence biological efficacy, glasshouse pot test. The conditions noted are these: 312 h, 1,000 g/ha, evaluated after 13 days, 100=total damage, 0=no damage, read-out: Percentage damage caused to weed species, pre-emergence, ECHCG. The method, boiled down: (§1)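 Damage ratings (0 no damage to 100 total damage) were taken 13 days after treatment. Compound had been applied at 1000 or 250 g/ha as an aqueous spray from acetone/water (50:50) with 0.5% Tween 20, one day after sowing in soil.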

The subject of experiment [2] is Solanum nigrum (SOLNI). Described as above. The conditions noted are these: 312 h, 1,000 g/ha, evaluated after 13 days, 100=total damage, 0=no damage, read-out: Percentage damage caused to weed species, pre-emergence, SOLNI. The method, boiled down: as §1
In experiment [3] the test system is Setaria faberi (SETFA). The experiment is described as above. The conditions noted are these: 312 h, 1,000 g/ha, evaluated after 13 days, 100=total damage, 0=no damage, read-out: Percentage damage caused to weed species, pre-emergence, SETFA. The gist of the method:
as §1

Experiment [4] concerns Amaranthus retroflexus (AMARE). Described as above. The conditions noted are these: 312 h, 1,000 g/ha, evaluated after 13 days, 100=total damage, 0=no damage, read-out: Percentage damage caused to weed species, pre-emergence, AMARE. The method, boiled down:
as §1

Experiment [5] concerns Alopecurus myosuroides (ALOMY). The experiment is described as above. To be noted: 312 h, 1,000 g/ha, evaluated after 13 days, 100=total damage, 0=no damage, read-out: Percentage damage caused to weed species, pre-emergence, ALOMY. The method, boiled down:
as §1

Experiment [6] deals with Ipomea hederaceae (IPOHE). The description is as above. To be noted: Ipomoea hederacea, 312 h, 1,000 g/ha, evaluated after 13 days, 100=total damage, 0=no damage, read-out: Percentage damage caused to weed species, pre-emergence, IPOHE. The method, boiled down:
as §1

The test system of experiment [7] is Echinochloa crus-galli (ECHCG). Kind of experiment: Post-emergence biological efficacy, glasshouse pot test. The conditions noted are these: 312 h, 1,000 g/ha, evaluated after 13 days, 100=total damage, 0=no damage, read-out: Percentage damage caused to weed species, post-emergence, ECHCG. The method, boiled down:
(§2)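 Weeds grown 8 days in glasshouse pots (24/16 °C, 14 h light, 65% humidity) were sprayed with compound in acetone/water plus 0.5% Tween 20 at 1000 or 250 g/ha. Damage was scored 13 days later on a 0–100 scale (100 = total damage).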

For experiment [8], the system named is Solanum nigrum (SOLNI). The description is as above. To be noted: 312 h, 1,000 g/ha, evaluated after 13 days, 100=total damage, 0=no damage, read-out: Percentage damage caused to weed species, post-emergence, SOLNI. The method, boiled down:
as §2

Experiment [9] concerns Setaria faberi (SETFA). Described as above. The conditions noted are these: 312 h, 1,000 g/ha, evaluated after 13 days, 100=total damage, 0=no damage, read-out: Percentage damage caused to weed species, post-emergence, SETFA. The method, boiled down: as §2
Experiment [10] deals with Amaranthus retroflexus (AMARE). The experiment is described as above. The conditions noted are these: 312 h, 1,000 g/ha, evaluated after 13 days, 100=total damage, 0=no damage, read-out: Percentage damage caused to weed species, post-emergence, AMARE. The method, boiled down: as §2
Experiment [11] relates to Alopecurus myosuroides (ALOMY). Described as above. To be noted: 312 h, 1,000 g/ha, evaluated after 13 days, 100=total damage, 0=no damage, read-out: Percentage damage caused to weed species, post-emergence, ALOMY. The gist of the method: as §2
For experiment [12], the system named is Ipomea hederaceae (IPOHE). The description is as above. To be noted: Ipomoea hederacea, 312 h, 1,000 g/ha, evaluated after 13 days, 100=total damage, 0=no damage, read-out: Percentage damage caused to weed species, post-emergence, IPOHE. The method, boiled down:
as §2

Turning to `COC(=O)c1nc(Cl)cc(NCC2CC2)c1Cl` [Compound 1-2, 4-Cyclopropylmethyl-amino-3,6-dichloro-pyridine-2-carboxylic acid methyl ester], the pest or weed control at 1000 g/ha in [1] was found to be 90%; in [2], 100%; in experiment [3] it was 90%; in experiment [4] it was 100%; in [5] it was 80%; in [6], 100%. For the same molecule, the pest or weed control at 1000 g/ha in [7] amounted to 70%; in experiment [8], 90%; in experiment [9] it was 90%; in [10], 100%; in experiment [11] it was 90%; in experiment [12] it was 80%.

Consider `C=Cc1c(C(=O)OC)nc(Cl)c(F)c1NCc1ccccc1[N+](=O)[O-]` [Compound 15-27, 6-Chloro-3-ethenyl-5-fluoro-4-[(2-nitrophenylmeth-yl)amino]-pyridine-2-carboxylic acid methyl ester], for which the pest or weed control at 1000 g/ha in [1] is 90%; in experiment [2], 100%; in [3], 90%; in experiment [4], 100%; in experiment [5], 90%; in experiment [6], 90%. The pest or weed control at 1000 g/ha in experiment [7] was 70%; in experiment [8], 100%; in [9], 90%; in experiment [10] it was 100%; in experiment [11] it was 70%; in experiment [12], 90%.

Regarding `COC(=O)c1nc(-c2ccc(Cl)c(OC)c2F)cc(NCc2ccc(OC)cc2OC)c1Cl` [Compound 22-164, 3-Chloro-6-(4-chloro-2-fluoro-3-methoxy-phenyl)-4-[(2,4-dimethoxyphenyl-methyl)-amino]-pyridine-2-carboxylic acid methyl ester], the pest or weed control at 1000 g/ha in experiment [1] was found to be 60%; in experiment [2], 80%; in experiment [3], 10%; in [4], 80%; in experiment [5] it was 20%; in experiment [6], 70%. The pest or weed control at 1000 g/ha in experiment [7] was 60%; in experiment [8], 90%; in [9], 60%; in experiment [10], 100%; in experiment [11], 0%; in experiment [12], 70%.

As for `COC(=O)c1nc(Cl)cc(NCc2ccccc2C(F)(F)F)c1Cl` [Compound 74-2, 3,6-Dichloro-4-[(2-trifluoromethyl-phenylmethyl)-amino]-pyridine-2-carboxylic acid methyl ester], the pest or weed control at 1000 g/ha in experiment [1] was 0%; in experiment [2], 90%; in [3], 10%; in experiment [4], 90%; in experiment [5] it was 0%; in experiment [6] it was 70%. The pest or weed control at 1000 g/ha was found to be 0% in experiment [7]; 100% in experiment [8]; 0% in [9]; 100% in experiment [10]; 10% in experiment [11]; 60% in experiment [12].

`COC(=O)c1nc(Cl)cc(NCc2ccc(Cl)cc2)c1Cl` [Compound 5-2, 4-[(4-Chlorophenyl-methyl)-amino]-3,6-dichloro-pyridine-2-carboxylic acid methyl ester]: the pest or weed control at 1000 g/ha in [1] turned out to be 10%; in experiment [2], 100%; in [3], 50%; in experiment [4], 100%; in [5] it was 20%; in experiment [6], 90%. Besides, the pest or weed control at 1000 g/ha in experiment [7] was found to be 50%; in [8] it was 100%; in experiment [9], 70%; in experiment [10], 100%; in [11], 50%; in [12], 70%.

On to `COC(=O)c1nc(Cl)cc(NCC2CCCCCCC2)c1Cl` [Compound 69-2, 4-Cyclooctylmethyl-amino-3,6-dichloro-pyridine-2-carboxylic acid methyl ester], for which the pest or weed control at 1000 g/ha was 10% in [1]; 100% in experiment [2]; 10% in experiment [3]; 90% in experiment [4]; 20% in experiment [5]; 80% in experiment [6]. Also, the pest or weed control at 1000 g/ha turned out to be 0% in experiment [7]; 90% in [8]; 0% in [9]; 100% in [10]; 10% in experiment [11]; 70% in [12].

`COC(=O)c1nc(Cl)c(F)c(NCc2ccccc2[N+](=O)[O-])c1C` [Compound 15-31, 6-Chloro-5-fluoro-3-methyl-4-[(2-nitrophenyl-methyl)-amino]-pyridine-2-carboxylic acid methyl ester]: the pest or weed control at 1000 g/ha in experiment [1] was determined as 20%; in experiment [2] it was 90%; in experiment [3], 20%; in [4], 100%; in [5] it was 20%; in experiment [6] it was 70%. The pest or weed control at 1000 g/ha amounted to 50% in [7]; 100% in [8]; 80% in [9]; 100% in [10]; 20% in experiment [11]; 70% in experiment [12].

As for `CCN1CCCC1CNc1cc(Cl)nc(C(=O)OC)c1Cl` (stereo not drawn) [Compound 71-2, 3,6-Dichloro-4-[(N-ethyl-pyrrolidin-2-ylmethyl)-amino]-pyridine-2-carboxylic acid methyl ester], the pest or weed control at 1000 g/ha in experiment [1] stood at 20%; in experiment [2], 100%; in experiment [3], 80%; in [4], 100%; in experiment [5], 70%; in experiment [6] it was 100%. Also, the pest or weed control at 1000 g/ha in experiment [7] was determined as 20%; in [8], 100%; in experiment [9] it was 50%; in experiment [10], 100%; in experiment [11], 20%; in [12], 60%.

Regarding `COC(=O)c1nc(Cl)cc(NCc2cnc(C)cn2)c1Cl` [Compound 81-2, 3,6-Dichloro-4-[(5-methylpyrazin-2-ylmethyl)-amino]-pyridine-2-carboxylic acid methyl ester], the pest or weed control at 1000 g/ha in experiment [1] stood at 70%; in experiment [2], 100%; in [3], 70%; in experiment [4], 100%; in experiment [5], 70%; in experiment [6], 90%. The pest or weed control at 1000 g/ha came to 40% in [7]; 100% in [8]; 80% in experiment [9]; 100% in experiment [10]; 40% in experiment [11]; 60% in [12].

For the origin of these results see patent publication US20120100990A1, “4 -AMINOPICOLINATES AND THEIR USE AS HERBICIDES” (SYNGENTA CROP PROTECTION LLC, priority 2009, published 2012).
